Source: PubChem BioAssay (NCI)
“And” between values parts separate entries of the source, which are not always exact repeats. Equal entries are not always repeated.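 Protocol summary: plate cells (96-well), add compound at 5 concentrations, incubate 48 h, interpolate endpoints linearly. GI50 is the concentration that inhibits growth by half. TGI marks complete inhibition of growth.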

Experiments:
Assay in all cases: NCI tumour cell line growth inhibition, 48 h
NCI-H23 lung = tested on: NCI-H23 lung
OVCAR-8 ovarian = tested on: OVCAR-8 ovarian
BT-549 breast = tested on: BT-549 breast
786-0 renal = tested on: 786-0 renal
MDA-N = tested on: MDA-N
HS 578T breast = tested on: HS 578T breast
SNB-75 CNS = tested on: SNB-75 CNS
CAKI-1 renal = tested on: CAKI-1 renal
HCT-15 colon = tested on: HCT-15 colon

| SMILES | TGI (NCI-H23 lung) | TGI (OVCAR-8 ovarian) | TGI (BT-549 breast) | TGI (786-0 renal) | TGI (MDA-N) | TGI (HS 578T breast) | TGI (SNB-75 CNS) | TGI (CAKI-1 renal) | TGI (HCT-15 colon) | GI50 (NCI-H23 lung) | GI50 (BT-549 breast) | GI50 (786-0 renal) | GI50 (MDA-N) | GI50 (HS 578T breast) | GI50 (SNB-75 CNS) | GI50 (CAKI-1 renal) | GI50 (HCT-15 colon) | GI50 (OVCAR-8 ovarian) |
| --- | --- | --- | --- | --- | --- | --- | --- | --- | --- | --- | --- | --- | --- | --- | --- | --- | --- | --- |
| O=C(NNC(=O)c1ccncc1)c1ccncc1 | > 100 µM | > 100 µM | > 100 µM | > 100 µM | > 100 µM | > 100 µM | > 100 µM | > 100 µM | > 100 µM | – | – | – | – | – | – | – | – | – |
| NC(=O)C(NC=O)c1ccccc1 (stereo not drawn) | > 100 µM | > 100 µM | > 100 µM | > 100 µM | > 100 µM | > 100 µM | > 100 µM | > 100 µM | > 100 µM | – | – | – | – | – | – | – | – | – |
| CC1(C)CC2C=C(C=O)C3(C=O)CC3(C)C2C1 (stereo not drawn) | 3.99 µM | 6.1 µM | 3.37 µM | 3.13 µM | 9.36 µM | – | 7.56 µM | 4.26 µM | 3.94 µM | – | – | – | – | – | – | – | – | – |
| CC(=O)OC1CCC2(C)C(=CCC3C2CCC2(C)C(C(C)C(=O)O)CCC32)C1 (stereo not drawn) | > 100 µM | > 100 µM | > 100 µM | > 100 µM | > 100 µM | > 100 µM | > 100 µM | > 100 µM | > 100 µM | – | – | – | – | – | – | – | – | – |
| O=c1[nH]c(SCc2c(Cl)c(Cl)c(Cl)c(Cl)c2Cl)nc(=S)[nH]1 | > 100 µM | > 100 µM | > 100 µM | > 100 µM | > 100 µM | > 100 µM | > 100 µM | > 100 µM | > 100 µM | – | – | – | – | – | – | – | – | – |
| O=C(CCCc1ccccn1)c1ccccc1 | > 100 µM | > 100 µM | > 100 µM | > 100 µM | > 100 µM | > 100 µM | > 100 µM | > 100 µM | > 100 µM | – | – | – | – | – | – | – | – | – |
| CC1(C)C(=S)C(C)(C)C1=S | > 100 µM | – | – | > 100 µM | > 100 µM | > 100 µM | > 100 µM | – | > 100 µM | – | – | – | – | – | – | – | – | – |
| COc1cc2c3c(n(C)c(=O)c2cc1OC)-c1cc2c(cc1/C3=C\CCCBr)OCO2 | 49.6 µM | > 48.7 µM | > 51.9 µM | > 40.2 µM | > 100 µM | > 57.4 µM | 12.8 µM | > 100 µM | > 86.8 µM | 19.6 µM | > 20.5 µM | 8.5 µM | > 100 µM | 14.4 µM | 0.398 µM | 48.1 µM | 34.8 µM | – |
| COc1ccc2c(=O)c3cc([N+](=O)[O-])ccc3n(C)c2c1 | – | > 100 µM | > 100 µM | > 100 µM | > 100 µM | > 100 µM | > 100 µM | > 100 µM | > 100 µM | – | – | – | – | – | – | – | – | – |
| C=C(C)[C@@H]1CCC2=C[C@@H](OC2=O)[C@@H](C(=C)C)C(=O)/C=C(/C)C(=O)C1 | 60.4 µM | > 100 µM | > 100 µM | > 100 µM | – | > 100 µM | > 100 µM | 60.9 µM | 69.7 µM | 22.6 µM | 44.8 µM | 35.5 µM | – | 35.1 µM | > 100 µM | 25.4 µM | 24.1 µM | 49 µM |
| C=CCN(/C=C1\C(=O)O[C@H](COC)[C@@]2(C)C1=C(O)C(=O)C1=C2[C@H](OC(C)=O)C[C@]2(C)C(=O)CC[C@@H]12)CC=C | 20 µM and > 100 µM | 20 µM and > 100 µM | 20 µM and 3.68 µM | 20 µM and 25.7 µM | 20 µM | – | – | 20 µM and 10.1 µM | 20 µM and > 100 µM | 8.94 µM and 2.69 µM | – | – | 5.91 µM | 0.173 µM and 0.025 µM | 0.291 µM and 0.0327 µM | 0.188 µM and 0.2 µM | 2.62 µM and 0.787 µM | 10.2 µM and 3.09 µM |
| COC(=O)[C@H](CC(C)C)NC(=O)NC(=O)NC(=O)CI | 32.2 µM | 18.4 µM | 17.7 µM | 11.5 µM | – | 77.4 µM | 28.6 µM | 2.23 µM | 3.13 µM | 14.9 µM | 5.32 µM | 3.02 µM | – | 24.3 µM | 11.9 µM | 1.06 µM | 1.66 µM | 5.69 µM |
| CCc1c(Cl)nc(Cl)nc1Cl | 2.06 µM | 44.4 µM | 0.133 µM | 3.71 µM | 10.8 µM | – | 4.21 µM | 0.404 µM | 0.601 µM | – | – | – | – | – | – | – | – | – |
| COc1cc([C@@H]2c3cc4c(cc3[C@H](O)[C@H]3COC(=O)[C@H]23)OCO4)cc(OC)c1OC | > 100 µM and 50 µM and > 7.43 µM | > 100 µM and 50 µM and > 7.6 µM | – | 1.08 µM and 0.5 µM and < 0.215 µM | 0.5 µM | > 100 µM and 50 µM and > 94 µM | – | – | > 100 µM and 50 µM | < 0.01 µM | < 0.01 µM | < 0.005 µM | – | < 0.01 µM | < 0.005 µM | < 0.005 µM | < 0.005 µM | < 0.01 µM |
| Clc1ccc(-c2nn3ncccc3c2-c2ccnc(Nc3ccccc3)n2)cc1 | > 25 µM | > 25 µM | > 25 µM | > 25 µM | – | > 22 µM | > 25 µM | > 22.2 µM | > 25 µM | 10.5 µM | 10.7 µM | 8.2 µM | – | 6.4 µM | 6.31 µM | 2.5 µM | 7.94 µM | 11.8 µM |
